The results in this text go back to patent publication US10000488B2, “Heterocyclic compound” (TAKEDA PHARMACEUTICAL COMPANY LIMITED, priority 2014, dated 2018).

Where two headings read alike, the source gives them in different places.

The target of test [1] is T1, RORγt (Homo sapiens, UniProt P51449).
T1 sequence (P51449 1-497 isoform P51449-2): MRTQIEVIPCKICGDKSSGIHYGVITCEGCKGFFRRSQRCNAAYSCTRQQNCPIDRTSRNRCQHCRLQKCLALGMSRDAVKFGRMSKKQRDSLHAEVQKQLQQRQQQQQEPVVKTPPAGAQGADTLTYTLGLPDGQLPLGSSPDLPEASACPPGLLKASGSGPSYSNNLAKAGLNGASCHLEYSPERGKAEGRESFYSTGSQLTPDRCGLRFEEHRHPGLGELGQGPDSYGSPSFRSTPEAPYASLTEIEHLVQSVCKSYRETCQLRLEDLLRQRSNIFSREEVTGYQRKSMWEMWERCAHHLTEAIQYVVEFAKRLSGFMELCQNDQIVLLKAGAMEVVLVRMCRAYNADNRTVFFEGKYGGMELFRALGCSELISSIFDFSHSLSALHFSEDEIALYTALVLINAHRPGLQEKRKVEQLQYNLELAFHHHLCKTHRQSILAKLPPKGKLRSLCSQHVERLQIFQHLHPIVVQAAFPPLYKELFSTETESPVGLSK
As to the kind of experiment: RORγt binding test using fluorescent-labeled synthetic ligand (TR-FRET). As to conditions: for inhibition at 1 µM: test compound 1 μM, read-out: binding inhibitory rate (%) of fluorescent-labeled synthetic ligand to RORγt at test compound 1 μM. As for the experimental part:
RORγt Binding Test Using Fluorescent-Labeled Synthetic Ligand
The binding activity of the test compound to RORγt was measured by a time resolved fluorescence resonance energy transfer (TR-FRET) utilizing histidine-tagged RORγt, fluorescent-labeled synthetic ligand, and terbium-labeled anti-histidine tag antibody (Invitrogen). First, a test compound diluted with an assay buffer (20 mM Tris-HCl (pH 7.5), 100 mM NaCl, 1 mM DTT, 0.1% BSA) was added to a 384 well plate by 3 μL. Then, RORγt diluted with an assay buffer to 240 nM was added by 3 μL, after which fluorescent-labeled synthetic ligand diluted with the assay buffer to 12 μM was added by 3 μL, and the mixture was stood at room temperature for 20 min. Thereafter, a terbium-labeled anti-histidine tag antibody diluted with the assay buffer to 8 nM was added by 3 μL. The mixture was stood at room temperature for 20 min, and fluorescence intensity (excitation wavelength 320 nm, fluorescence wavelength 520 nm, delay time 100 microseconds) was measured by Envision (PerkinElmer).
Background: TR-FRET usually uses a lanthanide donor and a delayed reading to cut background.

The target in test [2] is T1, RORγt. Kind of test: Cofactor recruitment test (Alpha Screen, biotinylated SRC-1 peptide). In kind it is biochemical. As to conditions: read-out: signal value inhibitory rate (%) at test compound 1 μM. The protocol: Cofactor Recruitment Test
Cofactor recruitment test was performed by Alpha Screen (Histidine Detection Kit, PerkinElmer) method. First, a test compound was diluted with an assay buffer (50 mM Tris-HCl (pH 7.5), 50 mM KCl, 1 mM DTT, 0.1% BSA) and added to a 384 well plate by 5 μL. […] The mixture was stood in a dark place for 1 hr, and the signal value was measured by Envision (PerkinElmer).

Test [3] addresses T1, RORγt. Kind of test: Jurkat reporter test (human IL-17 ROR response element luciferase reporter, RORγt vector). The class given is cell-based. Particulars: Jurkat cells; for inhibition at 3 µM: test compound 3 μM, read-out: luminescence level inhibitory rate (%) at test compound 3 μM. The protocol: The Jurkat cells used for the reporter test were cultured in a culture medium (RPMI (Invitrogen), 10% FCS (AusGeneX), 100 U/mL penicillin, 100 μg/mL streptomycin). On the day of the test, 4×10^7 cells were recovered by a centrifugal operation (1000 rpm, for 5 min) and suspended in PBS (phosphate buffered saline) (Invitrogen). Thereafter, the cells were recovered again by a centrifugal operation, and suspended in 2 mL of R buffer (NEON transfection kit, Invitrogen). […] Gene transfer was performed by Electroporation apparatus (NEON, Invitrogen) under the conditions of pulse voltage 1350 V, interval 10 milliseconds, number of times 3. The cells after gene transfer were suspended in 40 mL of a reaction medium (RPMI, 10% Lipid reduced FCS (HyClone), 10 mM HEPES (pH 7.5), 100 U/mL penicillin, 100 μg/mL streptomycin, 5 μM lovastatin), and plated in a 96 well plate by 90 μL. A test compound diluted with the reaction medium was added by 10 μL, and the cells were cultured overnight in an incubator. Bright-Glo (Promega) was added by 100 μL, and the mixture was stirred at room temperature for 10 min, and the luminescence level was measured by Envision (PerkinElmer).
(In a reporter assay the amount or activity of a reporter protein is the signal.)

As for `Cc1nc2cc(C(=O)N[C@@H]3CCCN(C(=O)Nc4cc5c(=O)n(CC6CC6)c(=O)n(C(C)C)c5cc4F)C3)ccc2o1` [Example 296, N-((3R)-1-((3-(cyclopropylmethyl)-7-fluoro-1-isopropyl-2,4-dioxo-1,2,3,4-tetrahydroquinazolin-6-yl)carbamoyl)piperidin-3-yl)-2-methyl-1,3-benzoxazole-5-carboxamide], the inhibition at 1 µM in test [1] was 102%; in test [2] it was 108%. For the same compound, the inhibition at 3 µM in test [3] turned out to be 102%.
For the compound `CC(C)n1c(=O)n(CC2CC2)c(=O)c2cc(NC(=O)N3CCO[C@@H](C(=O)Nc4cc(Cl)c(C#N)cc4F)C3)c(F)cc21` [Example 347, (2R)—N^2-(5-chloro-4-cyano-2-fluorophenyl)-N^4-(3-(cyclopropylmethyl)-7-fluoro-1-isopropyl-2,4-dioxo-1,2,3,4-tetrahydroquinazolin-6-yl)morpholine-2,4-dicarboxamide], the inhibition at 1 µM in test [1] came out at 102%; in test [2] it was 107%. Moreover, the inhibition at 3 µM in test [3] was found to be 107%.
Consider `CC(C)n1c(=O)n(CC2CC2)c(=O)c2cc(NC(=O)N3CCO[C@@H](C(=O)Nc4ccc(C#N)c(F)c4)C3)ccc21` [Example 102, (2R)-N^2-(4-cyano-3-fluorophenyl)-N^4-(3-(cyclopropylmethyl)-1-isopropyl-2,4-dioxo-1,2,3,4-tetrahydroquinazolin-6-yl)morpholine-2,4-dicarboxamide], for which the inhibition at 1 µM was determined as 101% in test [1] and 102% in test [2]. Besides, in test [3], the inhibition at 3 µM turned out to be 104%.
On the same counts, the results for `COC(=O)c1cccc(C(=O)NC2CCCN(C(=O)Nc3ccc4c(c3)c(=O)n(CC3CC3)c(=O)n4C(C)C)C2)c1` (stereo not shown) [Example 113, methyl 3-((1-((3-(cyclopropylmethyl)-1-isopropyl-2,4-dioxo-1,2,3,4-tetrahydroquinazolin-6-yl)carbamoyl)piperidin-3-yl)carbamoyl)benzoate] are 102%, 109% and 102%.
The matching figures for `CC(C)n1c(=O)n(CC2CC2(F)F)c(=O)c2cc(NC(=O)N3CCO[C@@H](C(=O)Nc4ccc(C#N)c(Cl)c4)C3)c(F)cc21` (stereo partly drawn) [Example 331, (2R)—N^2-(3-chloro-4-cyanophenyl)-N^4-(3-((2,2-difluorocyclopropyl)methyl)-7-fluoro-1-isopropyl-2,4-dioxo-1,2,3,4-tetrahydroquinazolin-6-yl)morpholine-2,4-dicarboxamide]: 102%, 109% and 103%.
The matching figures for `CC(C)n1c(=O)n(CC2CC2(F)F)c(=O)c2cc(NC(=O)N3CCCC(n4cnc5cc(C#N)ccc5c4=O)C3)c(F)cc21` (single isomer, unassigned) [Example 367, (3R)-3-(7-cyano-4-oxoquinazoline-3(4H)-yl)-N-(3-(((1R or 1S)-2,2-difluorocyclopropyl)methyl)-7-fluoro-1-isopropyl-2,4-dioxo-1,2,3,4-tetrahydroquinazolin-6-yl)piperidine-1-carboxamide (one stereoisomer, quinazolinedione: derived from tR1)]: 102%, 105% and 110%.
With `CC(C)n1c(=O)n(CC2CC2)c(=O)c2cc(NC(=O)N3CCC[C@@H](NC(=O)c4ccc(C#N)cc4)C3)ccc21` [Example 218, (3R)-3-((4-cyanobenzoyl)amino)-N-(3-(cyclopropylmethyl)-1-isopropyl-2,4-dioxo-1,2,3,4-tetrahydroquinazolin-6-yl)piperidine-1-carboxamide], the inhibition at 1 µM in test [1] came to 102%; in test [2] it was 111%. Further, the inhibition at 3 µM in test [3] was 103%.
Turning to `CC(C(F)F)n1c(=O)n(CC2CC2)c(=O)c2cc(NC(=O)N3CCOC(C(=O)Nc4ccc(C#N)c(Cl)c4)C3)c(F)cc21` [Example 373, (2R)-N^2-(3-chloro-4-cyanophenyl)-N^4-(3-(cyclopropylmethyl)-1-(1,1-difluoropropan-2-yl)-7-fluoro-2,4-dioxo-1,2,3,4-tetrahydro-quinazolin-6-yl)morpholine-2,4-dicarboxamide (one stereoisomer, quinazolinedione: derived from tR2)], the “binding inhibitory rate (%) of fluorescent-labeled synthetic ligand to RORγt at test compound 1 μM” value (from here on “binding inhibitory rate (%)”) in test [1] (1 µM) turned out to be 97%.
Consider `CC(C(F)F)n1c(=O)n(CC2CC2)c(=O)c2cc(NC(=O)N3CCCC(n4cnc5cc(C#N)ccc5c4=O)C3)c(F)cc21` [Example 372, (3R)-3-(7-cyano-4-oxoquinazoline-3(4H)-yl)-N-(3-(cyclopropylmethyl)-1-(1,1-difluoropropan-2-yl)-7-fluoro-2,4-dioxo-1,2,3,4-tetrahydro-quinazolin-6-yl)piperidine-1-carboxamide (one stereoisomer, quinazolinedione: derived from tR1)], for which the inhibition at 1 µM in test [1] came to 101%.
On the same count and under the same terms, in the case of `CC(C(F)F)n1c(=O)n(CC2CC2)c(=O)c2cc(NC(=O)N3CCOC(C(=O)Nc4ccc(C#N)c(Cl)c4)C3)c(F)cc21` [Example 371, (2R)-N^2-(3-chloro-4-cyanophenyl)-N^4-(3-(cyclopropylmethyl)-1-(1,1-difluoropropan-2-yl)-7-fluoro-2,4-dioxo-1,2,3,4-tetrahydro-quinazolin-6-yl)-morpholine-2,4-dicarboxamide (one stereoisomer, quinazolinedione: derived from tR1)] it was 95%; in that of `CC(C)n1c(=O)n(CC2CC2)c(=O)c2cc(NC(=O)N3CCC(F)(F)C(n4cnc5cc(C#N)ccc5c4=O)C3)c(F)cc21` (stereo not drawn) [Example 375, 3-(7-cyano-4-oxoquina-zoline-3(4H)-yl)-N-(3-(cyclopropylmethyl)-7-fluoro-1-isopropyl-2,4-dioxo-1,2,3,4-tetrahydro-quinazolin-6-yl)-4,4-difluoropiperidine-1-carboxamide (one stereoisomer, piperidine: derived from tR1)], 95%.
`CC(C(F)F)n1c(=O)n(CC2CC2)c(=O)c2cc(NC(=O)N3CCCC(n4cnc5cc(C#N)ccc5c4=O)C3)c(F)cc21` [Example 374, (3R)-3-(7-cyano-4-oxoquinazoline-3(4H)-yl)-N-(3-(cyclopropylmethyl)-1-(1,1-difluoropropan-2-yl)-7-fluoro-2,4-dioxo-1,2,3,4-tetrahydro-quinazolin-6-yl)piperidine-1-carboxamide (one stereoisomer, quinazolinedione: derived from tR2)]: the “binding inhibitory rate (%)” value in test [1] (1 µM) turned out to be 102%.
As for `CC(C)n1c(=O)n(CC2CC2(F)F)c(=O)c2cc(NC(=O)N3CCCC(n4cnc5cc(C#N)ccc5c4=O)C3)c(F)cc21` (single isomer, unassigned) [Example 369, (3R)-3-(7-cyano-4-oxoquinazoline-3(4H)-yl)-N-(3-(((1R or 1S)-2,2-difluorocyclopropyl)methyl)-7-fluoro-1-isopropyl-2,4-dioxo-1,2,3,4-tetrahydroquinazolin-6-yl)piperidine-1-carboxamide (one stereoisomer, quinazolinedione: derived from tR2)], the “binding inhibitory rate (%)” value in test [1] amounted to 102%. The “luminescence level inhibitory rate (%) at test compound 3 μM” value in test [3] is listed as 110%.
